Key:
Assay type in all cases: in vivo, rat
[1] = tested on: rats exposed to chronic stress; assay: Escape test in rats exposed to unavoidable/chronic stress; conditions: for N0 of escapes After 8 days / N0 of escapes After stress + 3-week VAB training: ALCAR 10 mg/kg IP; for N0 of escapes After 8 days: BID or IMI 5 mg/kg BID plus chronic stress for 8 days; for N0 of escapes After stress + 3-week VAB training: BID or IMI 5 mg/kg BID, 8 days plus 3 weeks with stress on alternate days; for escape deficit induced by chronic stress: second experiment, end of 3-week training
Description: c) Stress: 10 rats were treated with physiological solution (1 ml/kg IP, BID) for 14 days. Then, the animals were exposed to the sequence of pre-test [with the pre-test, the animals were exposed to both unavoidable stress (electric shocks) of minimum intensity and duration, capable to induce a reliable modification of behaviour. Brain. Res. Protocols 7(1):11-20; 2001]; escape test [(also defined as “test”) carried out 24 hours after the pre-test, to assess the induced behaviour modification (Brain. Res. Protocols 7(1):11-20; 2001)]; Y- maze training and exposure to the chronic stress procedure on alternate days (maze one day, and stress the next day) for three weeks (Brain. Res. Protocols 7(1): 11-20; 2001), while continuing treatment with physiological solution;
d) acetyl L-carnitine+Stress: 10 rats were treated with acetyl L-carnitine (10 mg/kg, IP, BID) for 14 days. Then, animals were exposed to the sequence of: -pre-test; -test; -Y-maze training and simultaneously exposed to the chronic stress procedure on alternate days (maze one day, and stress the next day) for three weeks, while continuing treatment with acetyl L-camitine.
At the end of the VAB training, all the animals exposed to stress underwent the escape test (Brain. Res. Protocols 7(1):11-20; 2001).
(§1) f) Stress+VAB: the animals were exposed to the pre-test. Twenty-four hours later they were subjected to the escape test, and then exposed to the chronic stress procedure for 7 days. On day 9, they started their training in the Y-maze while exposed to stress on alternate days;
(§2) g) acetyl L-carnitine+Stress+VAB: the animals were exposed to the pre-test. Twenty-four hours later they underwent the escape test. Then, they were exposed to the protocol of chronic stress for 7 days, while receiving acetyl L-carnitine 10 mg/kg IP, BID for 8 days. On day 9, the rats started their VAB training in the Y-maze and exposure to stress on alternate days, while continuing treatment with the acetyl L-carnitine for 3 weeks;
(§3) h) IMI+Stress+VAB: the animals were exposed to the pre-test. Twenty-four hours later, they underwent the escape test, and then they were exposed to the chronic stress protocol for 7 days while receiving imipramine 5 mg/kg IP, BID for 8 days. On day 9, the rats started their training in the Y-maze and exposure to stress on alternate days, while continuing with IMI for 3 weeks.
At the end of the training period, all the animals underwent the escape test.

[2] = tested on: dopamine in the nucleus accumbens (Nacs); assay: Microdialysis of dopamine in the Nacs after 7-day stress: basal, vanilla sugar meals, cocaine (Example 2); conditions: for Dopamine (max percentage increase) Meal 1 / Dopamine (max percentage increase) Meal 2: mean ± standard error of 10; for protection from the neurochemical effects resulting from a repeated exposure to stress: Example 2, IMI 5 mg/kg IP BID or FLX 5 mg/kg IP/die for 8 days with 7-day stress
Description: Sixty rats were divided in 6 groups of 10 animals each, as follows:
a) Control (Crt): the animals were administered physiological solution 1 ml/kg IP, BID for 8 days;
b) acetyl L-carnitine: the animals were administered acetyl L-carnitine 10 mg/kg IP, BID for 8 days;
c) Stress: the animals were exposed to the pre-test, they were tested for escape 24 hours later, and then they were exposed to the chronic stress protocol for 7 days, while receiving physiological solution (for 8 days);
d) acetyl L-carnitine+Stress: the animals were exposed to the pre-test, they were tested for escape 24 hours later, and then they were exposed to the chronic stress protocol for 7 days, while receiving acetyl L-carnitine 10 mg/kg IP, BID, for 8 days;
e) IMI+Stress: the animals were exposed to the pre-test, they were tested for escape 24 hours later, and then they were exposed to the chronic stress protocol for 7 days, while receiving IMI 5 mg/kg IP, BID for 8 days;
f) FLX+Stress: the animals were exposed to the pre-test, they were tested for escape 24 hours later, and then they were exposed to the chronic stress protocol for 7 days, while receiving FLX 5 mg/kg IP/die for 8 days.
On day 9, all the animals were implanted with dialysis probes in the Nacs; on day 10, the animals were dialysed.
The basal levels of dopamine were determined over 60 minutes.
At this point, the rats were offered 5 vanilla sugar pellets (Meal 1); 4 samples of dialysis fluid were taken over the next 60 minutes.
The rats were offered vanilla sugar one more time (Meal 2), and samples of dialysis fluid were taken over 60 minutes.
Finally, the rats were injected with cocaine 5 mg/kg IP, 0.1 ml in water and samples of dialysis fluid were taken over 60 minutes.

[3] = tested on: rats exposed to chronic stress; assay: Acquisition of vanilla sugar-sustained appetitive behaviour (VAB) in the Y-maze during chronic stress; conditions: for No. of correct choices: rats, ALCAR 10 mg/kg IP, BID or IMI 5 mg/kg BID started after pre-test, chronic stress 8 days, then 3-week Y-maze training with stress on alternate days, mean ± standard error; for protection from negative effect of chronic stress on VAB acquisition: second experiment: chronic administration during exposure to stress and training in the Y-maze
From the text: The anhedonia model is based on the observation that the fact of being exposed to a repeated unavoidable stress prevents the development of an appetitive behaviour induced and maintained by a highly palatable food (vanilla sugar) in rats fed ad libitum (Behav. Pharmacol. 8:619-628, 1997). […]
The Y-maze was made up of three wings. The vanilla sugar for the acquisition of the appetitive behaviour was in one of the two diverging wings (VAB training, 3 weeks).
e) VAB: the physiological solution was administered to the animals (1 ml/kg IP, BID) for 8 days, and then the rats were trained in the Y-maze for VAB acquisition while continuing the treatment with physiological solution for 3 weeks;
as §1, §2, §3

[4] = tested on: dopamine in the nucleus accumbens (Nacs); assay: Microdialysis of extraneuronal dopamine in the nucleus accumbens after VAB training (Example 1); conditions: rats trained in the Y-maze during chronic stress exposure and treated; for dopamine in the Nacs after the acute administration of cocaine vs control animals (FIGS. 3 and 4): cocaine 5 mg/kg IP
Description: Two days later, animals were implanted with microdialysis probes into the nucleus accumbens (Nacs) (Brain. Res. Protocols 5(1):16-24: 2000) and underwent dialysis on the next day.
Once the dopamine basal level had been reached, the rats were administered a single dose of cocaine 5 mg/kg IP in 0.1 ml volume of water, and dialysed within the next 60 minutes.

[5] = rats exposed to chronic stress for 7 days during ALCAR 10 mg/kg IP BID, IMI 5 mg/kg IP BID or FLX 5 mg/kg IP/die, 8 days, Nacs

Compound | N0 of escapes After 8 days ([1]; rats, mean ± standard error) | N0 of escapes After stress + 3-week VAB training ([1]; rats, mean ± standard error) | No. of escapes 24 hours after the pre-test ([1]; rats, acetyl L-carnitine 10 mg/kg IP, BID for 14 days before pre-test, mean ± standard error) | No. of escapes After training for VAB and exposure to stress ([1]; rats, acetyl L-carnitine 10 mg/kg IP, BID, 14-day pre-treatment continued during 3-week VAB training and chronic stress, mean ± standard error) | escape deficit induced by chronic stress [1] | basal levels of dopamine in the Nacs vs control rats (FIGS. 5 and 6) ([2]; Example 2, 8-day treatment) | increase of dopamine in the Nacs after the acute administration of cocaine vs control rats ([2]; Example 2, 8-day treatment, cocaine 5 mg/kg IP) | Dopamine (max percentage increase) Meal 1 [2, 5] [%] | Dopamine (max percentage increase) Meal 2 [2, 5] [%] | increase in the output of dopamine after two consecutive vanilla sugar meals ([2]; rats exposed to stress and treated with acetyl L-carnitine, Nacs) | Dopamine (max percentage increase) Meal 1 ([2]; rats not exposed to stress, acetyl L-carnitine 10 mg/kg IP, BID 8 days, Nacs dialysate after first vanilla sugar meal) [%] | Dopamine (max percentage increase) Meal 2 ([2]; rats not exposed to stress, acetyl L-carnitine 10 mg/kg IP, BID 8 days, Nacs dialysate after second vanilla sugar meal) [%] | negative effect of chronic stress on VAB acquisition (FIGS. 1 and 2) ([3]; first experiment: 14-day pre-treatment 10 mg/kg IP BID, continued throughout training with chronic stress) | No. of correct choices [3] | protection from negative effect of chronic stress on VAB acquisition [3] | basal levels of extraneuronal dopamine in the Nacs vs control animals (FIGS. 3 and 4) [4] | dopamine output levels in the Nacs vs control group [4] | dopamine in the Nacs after the acute administration of cocaine vs control animals (FIGS. 3 and 4) [4] | protection from the neurochemical effects resulting from a repeated exposure to stress [2]
CC(=O)O[C@H](CC(=O)[O-])C[N+](C)(C)C [ALCAR, acetyl L-carnitine] | 1.0 ± 0.5 | 22.4 ± 2.8 | 25.8 ± 2.5 | 26.4 ± 2.9 | completely reversed | significantly higher | significantly higher | 286.4 ± 16.4 | 276.7 ± 18.6 | approx 300% | 35.7 ± 1.8 | 6.8 ± 5.1 | prevented such negative effect from occurring | 7.6 ± 0.5 | fully protected the rats from negative effect of chronic stress on VAB acquisition | significantly higher | superimposable to those observed in the control group | significantly higher | 
CN(C)CCCN1c2ccccc2CCc2ccccc21 [IMI, imipramine, reference compound] | 2.5 ± 1.1 | 24.8 ± 1.0 |  |  | completely reversed |  |  | 3.3 ± 2.3 | 4.1 ± 3.5 |  |  |  |  | 2.9 ± 1.2 | protected the rats from the negative effect of chronic stress on VAB acquisition | significantly lower |  | significantly lower | Neither the treatment with IMI nor the treatment with FLX were capable to protect
CNCCC(Oc1ccc(C(F)(F)F)cc1)c1ccccc1 (stereo not shown) [FLX, fluoxetine, reference compound] |  |  |  |  |  |  |  | 4.6 ± 4.2 | 3.6 ± 4.0 |  |  |  |  |  |  |  |  |  | Neither the treatment with IMI nor the treatment with FLX were capable to protect

Reference: US20060148896A1, “Use of an alkanoyl L-carnitine for the preparation of a medication to treat anhedonia” (Sigma-Tau Industrie Farmaceutiche Riunite S.p.A., priority 2001, published 2006)
